Measurements from patent US10596152B2, “Selenium containing KGA/GDH dual inhibitors and the applications thereof” (HANGZHOU GAMMA BIOTECH CO., LTD., priority 2015, dated 2020).
Entries after “also recorded” stand apart in the source; their conditions may differ. Read-outs that look alike come from different tables or passages of the source. Blank lines part the entries; values can stand above or below the compound they belong to.

Legend:
[1] = system: PC12 cells; assay: Protection of PC12 nerve cells under OGD (hypoxia-ischemia); assay type: cell-based; details: for Protection of PC12 cells under OGD: OGD hypoxia-ischemia condition
Excerpt: Then observed the growth of cellular neurite growth or neural synapse.

[2] = system: L2 (Normal cell); assay: Growth inhibition of L2 normal cells; assay type: cell-based
Description: (§1) Tumor cells (1000 cells per well) which were first treated with the corresponding compound for 3 days, and then EZMTT detection reagents were added measure the cell growth.

[3] = system: T24 (Bladder cancer); assay: Inhibition of growth of tumor cells, T24 bladder cancer; assay type: cell-based
Description: as §1

[4] = molecular target: T1, KGA (Homo sapiens, UniProt O94925); assay: Inhibition of KGA (glutaminase); assay type: biochemical
T1 sequence (O94925 55-669): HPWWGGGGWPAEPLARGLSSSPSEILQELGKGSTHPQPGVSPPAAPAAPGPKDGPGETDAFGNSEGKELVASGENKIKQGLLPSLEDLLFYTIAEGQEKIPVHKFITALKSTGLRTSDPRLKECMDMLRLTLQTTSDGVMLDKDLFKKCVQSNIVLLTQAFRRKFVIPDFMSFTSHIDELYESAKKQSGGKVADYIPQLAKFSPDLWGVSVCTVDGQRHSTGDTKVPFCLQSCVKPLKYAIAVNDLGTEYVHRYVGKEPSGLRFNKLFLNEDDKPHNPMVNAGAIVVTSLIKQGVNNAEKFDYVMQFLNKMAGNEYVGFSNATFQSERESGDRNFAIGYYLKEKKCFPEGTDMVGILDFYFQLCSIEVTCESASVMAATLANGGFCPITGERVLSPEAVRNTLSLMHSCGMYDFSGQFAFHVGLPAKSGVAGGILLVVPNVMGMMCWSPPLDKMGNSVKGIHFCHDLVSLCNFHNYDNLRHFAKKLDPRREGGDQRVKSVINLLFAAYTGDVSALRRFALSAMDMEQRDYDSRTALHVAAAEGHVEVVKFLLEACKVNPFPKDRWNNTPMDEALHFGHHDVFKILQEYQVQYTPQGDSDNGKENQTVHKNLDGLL

[5] = system: TrxR; details: reported; cited from earlier work
[6] = system: normal cells
[7] = system: T24 tumor; assay: Subcutaneous T24 tumor model in nude mice; assay type: in vivo; details: immune deficient mice, 1 mg/kg subcutaneously near tumor daily, 7 days, FIG. 6
Description: T24 tumor cells (1,000,000) were inoculated in nude mice, and the tumor size was 10 mm×10 mm in 24th to 27th day. Then compound hexane-(3,3′-dimethyl) thioether selen in PBS solution (200 μl) was injected subcutaneously every day near the tumor with the dosage of 1 mg/kg.

[8] = system: PC12; assay: Inhibition of growth of tumor cells, PC12; assay type: cell-based; details: Rattus norvegicus, PC-12, 72 h, read-out: IC50, PC12
Description: as §1

[9] = system: A549; assay: Inhibition of growth of tumor cells, A549; assay type: cell-based; details: Homo sapiens, read-out: IC50, A549
Description: as §1

[10] = system: PC3; assay: Inhibition of growth of tumor cells, PC3; assay type: cell-based; details: Homo sapiens, PC-3, 72 h, read-out: IC50, PC3
Description: as §1

[11] = system: A549 tumor; assay: Subcutaneous A549 tumor model in nude mice; assay type: in vivo; details: immune deficient mice, 1 mg/kg subcutaneously near tumor daily, 7 days, FIG. 5
Description: A549 tumor cells (1,000,000) were inoculated in nude mice, and the tumor size was 10 mm×10 mm in 24th to 27th day. Then compound hexane-(3,3′-dimethyl) thioether selen in PBS solution (200 μl) was injected subcutaneously every day near the tumor with the dosage of 1 mg/kg.

[12] = system: Caki; assay: Inhibition of growth of tumor cells, Caki; assay type: cell-based; details: 72 h, read-out: IC50, Caki
Description: as §1

[13] = system: JC82; assay: Inhibition of growth of tumor cells, JC82; assay type: cell-based; details: 72 h, read-out: IC50, JC82
Description: as §1

[14] = system: normal cells; assay: Toxicity to normal cells
[15] = molecular target: T1, KGA; assay: Binding to immobilized KGA by molecular interaction apparatus (ForteBio); details: KGA immobilized on ForteBio chip
Excerpt: We suspected that ebselen may not inhibit glutaminase. […] Therefore, based on the crystal structure of the allosteric site of glutaminase, we synthesized a series of new symmetric and asymmetric ebselen derivatives with the aim to make an ebselen derived KGA inhibitor. In the derivatives, the benzene ring at the 2-position of the original ebselen molecule was replaced by a straight-chain or branched alkyl substituent containing at least one carbon atom, or a long chain containing thioether, or a smaller cycloalkyl group, and the newly obtained derivatives are effective in binding to the allosteric site of glutaminase. […] Moreover, these inhibitors that bind the allosteric site of glutaminase had good selectivity and higher potency for inhibition of tumor cell growth (<100 nM), and no damage to normal cells (10 μM). These inhibitors also had significant activity in an immunodeficient mouse model with no toxicity. These inhibitors had good inhibitory activity for various types of glutamine-dependent cancer cells (80-90%), especially urinary system tumors. The binding diagram of GAC tetramers and BPTES is shown in FIG. 1, wherein “mark 1” is the active site of substrate binding; and “mark 2” is an allosteric site for BPTES binding.
Our Papers published are Anal. Chem. 2017, 89: 1689, ACS Chemical Biology, 2017, 12:3003

[16] = molecular target: T2, glutaminase (Homo sapiens, UniProt O94925); details: reported; read-out: Glutaminase inhibitor IC50; cited from earlier work
T2 sequence (O94925 55-669): T1 sequence (O94925 55-669)

[17] = system: glutamine dependent cancer cell; details: reported; read-out: Inhibiting glutamine dependent cancer cell growth IC50; cited from earlier work
[18] = bladder cancer cell line table, read-out: L2 (Normal cell) IC50
[19] = bladder cancer cell line table, read-out: T24 (Bladder cancer) IC50
[20] = 72 h, read-out: IC50, L2 (Normal)
[21] = Homo sapiens, T-24, 72 h, read-out: IC50, T24

IC50 [3, 19]: 10000 nM
Compound: 1,6- tert butyl carbonate hexamethylendiamineselen
Protection of PC12 cells under OGD [1]: <100 nM
IC50 [2, 18]: > 10000 nM

Compound: O=c1c2ccccc2[se]n1CCn1[se]c2ccccc2c1=O [ethylselen]
Inhibition of KGA [4]: do not inhibit KGA
Inhibition of TrxR [5]: strong inhibitors of TrxR
Toxicity to normal cells [6]: toxic to the normal cells

Compound: O=c1c2ccccc2[se]n1CCCSCCCn1[se]c2ccccc2c1=O [Thioether selen]
Protection of PC12 neuronal cells under OGD condition ([1]; words, FIG. 7): protection of PC12 neuronal cells
IC50 [2, 20]: > 10000 nM
Inhibition of growth of T24 tumor [7]: inhibition of the growth of the T24 tumor cells
IC50 [8]: 5000 nM
IC50 ([9]; A549, 72 h): 500 nM
IC50 [10]: 2000 nM
IC50 [3, 21]: 500 nM
Inhibition of growth of A549 tumor [11]: inhibition of the growth of the A549 tumor
IC50 [12]: 1000 nM
IC50 [13]: 5000 nM

Inhibition of KGA [4]: do not inhibit KGA
IC50 ([8]; PC12 cells, 3 days treatment): > 10000 nM
IC50 ([9]; 72 h, A549 cells, 3 days treatment): > 10000 nM
IC50 ([10]; PC3 cells, 3 days treatment): > 10000 nM
IC50 ([3]; Homo sapiens, T-24, 72 h, T24 cells, 3 days treatment, comparison with parent nucleus, read-out: IC50, T24): > 10000 nM
IC50 [3, 19]: > 10000 nM
IC50 ([12]; Caki cells, 3 days treatment): > 10000 nM
IC50 ([13]; JC82 cells, 3 days treatment): > 10000 nM
Compound: O=c1c2ccccc2[se]n1-c1ccccc1 [Ebselen, 2-phenylbenzoisoselenazol-3-one, reference compound]
Protection of PC12 cells under OGD [1]: 1000 nM
Toxicity to normal cells [14]: toxic to the normal cells
IC50 ([2]; 72 h, L2 normal cells, 3 days treatment, read-out: IC50, L2 (Normal)): > 10000 nM
IC50 [2, 18]: > 10000 nM
Inhibition of TrxR [5]: strong inhibitors of TrxR
Binding to KGA / glutaminase [15]: not bound to the KGA; also recorded: cannot directly combine toglutaminase
IC50 [16]: 9 nM
IC50 [17]: 20000 nM

Compound: O=c1c2c(F)cccc2[se]n1CCCCCCn1[se]c2cccc(F)c2c1=O [Hexane-(2,2'-difluoro) selen, Hexane-(2,2′-difluoro) selen]
IC50 [2, 20]: > 10000 nM
IC50 [8]: 5000 nM
IC50 ([9]; A549, 72 h): 500 nM
IC50 [10]: 2000 nM
IC50 [3, 21]: 10 nM
IC50 [12]: 1000 nM
IC50 [13]: 2000 nM

Compound: Cc1cccc2[se]n(CCCCCCn3[se]c4cccc(C)c4c3=O)c(=O)c12 [Hexane-(3,3'-dimethyl) selen, Hexane-(3,3′-dimethyl) selen]
IC50 [2, 20]: > 10000 nM
IC50 [8]: 5000 nM
IC50 ([9]; A549, 72 h): 500 nM
IC50 [10]: 2000 nM
IC50 [3, 21]: 200 nM
Binding to KGA / glutaminase [15]: distinct levels of combination with KGA enzyme
IC50 [12]: 1000 nM
IC50 [13]: 5000 nM

Compound: O=c1c2ccccc2[se]n1CCCCCCn1[se]c2c(F)cccc2c1=O [Hexane - (2'-fluoro) selen, Hexane-(2′-fluoro) selen]
Protection of PC12 cells under OGD [1]: <100 nM
IC50 ([2]; read-out: L2 (Normal cell) IC50): > 10000 nM
IC50 ([3]; read-out: T24 (Bladder cancer) IC50): 200 nM
